From patent publication US7312246B2, “Proteomimetic compounds and methods” (Yale University, priority 2001, dated 2007)

Columns and labels:
Solubility in buffer = assay type: physicochemical; conditions: buffer with <1% DMSO
From the text: For synthetic simplicity we changed the indole of Trp800 to phenyl and removed the hydroxyl of Thr803. Using Negishi couplings of differently substituted phenyltriflates, we prepared terphenyl a as a mimic of the calmodulin binding face of smMLCK.

calmodulin (CaM) [1] = target: T1, calmodulin (CaM) (Homo sapiens, UniProt P0DP23); experiment: Antagonism of CaM activation of phosphodiesterase (PDE), monitored by hydrolysis of mant-cGMP; assay type: biochemical; conditions: for IC50: 13.9 nM CaM, 50 mu/ml PDE, 8 μM mant-cGMP, pH 7.0, read-out: IC50, inhibition of CaM activation of PDE
Experimental: 13.9 nM CaM, 50 mu/ml PDE, 8 μM mant-cGMP, 10 mM Mops, 0.5 mM MgCl2, 90 mM KCl, 0.73 mM CaCl2, 0.2% DMSO, pH 7.0.

calmodulin (CaM) [2] = target: T1, calmodulin (CaM); experiment: Avidin-based affinity resin derivatized with biotinylated CaM: retention of compound; assay type: binding
From the text: Discrete complex formation to CaM was indicated by the release of a from the column, as monitored by HPLC, on elution with […] biotin. […] To amplify the binding event between CaM and a, an enzymatic assay was also employed.

calmodulin (CaM) [3] = target: T1, calmodulin (CaM); experiment: Polyacrylamide gel permeation chromatography (6 kD cutoff) with and without CaM; assay type: binding; conditions: 70 μM in buffer
[4] = target: T2, gp41 core model (N36/C34 six helix bundle) (Human immunodeficiency virus type 1 group M subtype B, UniProt P04578); assay type: binding, HIV-1; conditions: 10 μM gp41 core model, 50 mM PBS, 150 mM NaCl, pH 7.0, 4° C.
T2 construct: two peptides (N36 and C34), from the N and C heptad repeat regions of gp41; purchased HHMI Biopolymer/Keck Foundation Biotechnology Resource Center, Yale University School of Medicine; host or cells: synthetic peptides
From the text: Spectra were corrected by the subtraction of a blank corresponding to the solvent composition of each sample.

Bcl-xL = Bcl-xL (Homo sapiens, UniProt Q07817); experiment: Fluorescence polarization assay: displacement of fluorescein-labeled 16-mer Bak-peptide from Bcl-xL; assay type: binding; conditions: for binding affinity for Bcl-xL (in words): compared with m
Experimental: Based on these structural requirements we designed a series of terphenyl molecules (k-n) containing alkyl or aryl substituents on the three ortho positions (to mimic the key i, i+3, and i+7 groups in Bak or Bad) and carboxylic acid substituents on either end (to mimic the additional ion pair) (FIG. 17). The binding affinity of these molecules for Bcl-xL was assessed by a fluorescence polarization assay using fluoresceine-labeled 16-mer Bak-peptide. Displacement of this probe through competitive binding of the terphenyl into the hydrophobic cleft of BCl-xL would lead to a decrease in its fluorescence polarization which in turn could be related to the known affinity of the 16-mer Bak/Bcl-xL complex.

T2 sequence (P04578 546-581): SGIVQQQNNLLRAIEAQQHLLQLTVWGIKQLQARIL
Sequence of Bcl-xL (Q07817 whole entry): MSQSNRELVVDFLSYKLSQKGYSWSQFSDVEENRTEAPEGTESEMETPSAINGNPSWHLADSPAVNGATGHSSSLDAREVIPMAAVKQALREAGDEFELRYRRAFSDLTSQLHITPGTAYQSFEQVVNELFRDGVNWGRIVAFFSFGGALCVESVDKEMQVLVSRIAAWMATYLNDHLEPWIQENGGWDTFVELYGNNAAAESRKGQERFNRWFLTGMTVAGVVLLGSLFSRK

CCc1cc(-c2ccc(OCC(=O)O)cc2C(C)C)ccc1-c1cccc(Cc2ccccc2)c1.N [48.NH4, Ammonium (3-benzyl-2′-ethyl-2″-isopropyl-[1,1′:4′,1″]terphenyl-4″-yloxy)-acetate]
solubility in buffer (Solubility in buffer): surprisingly soluble in buffer with <1% DMSO

CCc1cc(-c2ccc(OCC(=O)O)cc2C(C)C)ccc1-c1cccc(Cc2ccccc2)c1 [a, (3-Benzyl-2′-ethyl-2″-isopropyl-[1,1′:4′,1″]terphenyl-4″-yloxy)-acetic acid]
IC50 (calmodulin (CaM) [1]): 800 nM
inhibitory potency, fold less than RS20 (calmodulin (CaM) [1]; relative to 20-mer peptide RS20): 10 fold
retention on avidin affinity resin derivatized with biotinylated CaM (calmodulin (CaM) [2]; CaM-derivatized resin): retention of the terphenyl on the column
retention on underivatized avidin resin (control experiment) (calmodulin (CaM) [2]; underivatized avidin resin): no observable retention

CCc1cc(-c2ccc(OCC(=O)O)cc2C(C)C)ccc1-c1cccc(Cc2cccc3ccccc23)c1 [b, (2′-Ethyl-2″-isopropyl-3-naphthalen-1-ylmethyl-[1,1′:4′,1″]terphenyl-4″-yloxy)-acetic acid]
IC50 (calmodulin (CaM) [1]): 9 nM
potency, fold improvement over RS20 (calmodulin (CaM) [1]; relative to helical peptide RS20): 8 fold

CCc1cc(-c2ccc(OCC(=O)O)cc2C(C)C)ccc1-c1cccc(Cc2ccc3ccccc3c2)c1 [c, (2′-Ethyl-2″-isopropyl-3-naphthalen-2-ylmethyl-[1,1′:4′,1″]terphenyl-4″-yloxy)-acetic acid]
IC50 (calmodulin (CaM) [1]): 20 nM

CC(C)Cc1cc(-c2ccc(-c3ccc(CCCN)cc3CC(C)C)cc2C(C)C)ccc1OCCN.Cl.Cl [g, 3-[4″-(2-aminoethoxy)-2,3″-diisobutyl-3′-isopropyl-1,1′:4′,1″-terphenyl-4-yl]propan-1-amine dihydrochloride]
behaviour on gel permeation column, compound alone (calmodulin (CaM) [3]; alone): retained on the column
behaviour on gel permeation column, mixed with one equivalent of CaM (calmodulin (CaM) [3]; one equivalent of CaM): passed through
effect on CD spectrum of gp41 core model (helicity of the hexameric bundle) [4]: little effect on the protein CD spectrum even at high concentrations

O=C(O)CCc1ccc(-c2ccc(OCC(=O)O)cc2)cc1 [i, 3-[4′-(carboxymethoxy)-1,1′-biphenyl-4-yl)propanoic acid]
effect on CD spectrum of gp41 core model (helicity of the hexameric bundle) [4]: little effect on the protein CD spectrum even at high concentrations

CC(C)Cc1cc(CCC(=O)O)ccc1-c1ccc(-c2ccc(OCC(=O)O)c(Cc3ccccc3)c2)c(Cc2ccccc2)c1 [j, 3-(3′,3″-dibenzyl-4″-(carboxymethoxy)-2-isobutyl-1,1′:4′,1″-terphenyl-4-yl)propanoic acid]
effect on CD spectrum of gp41 core model (helicity of the hexameric bundle) [4]: modest enhancement in activity compared to f

CC(C)Cc1cc(-c2ccc(-c3ccc(CCC(=O)O)cc3CC(C)C)cc2Cc2ccccc2)ccc1OCC(=O)O [l, 3-(3′-Benzyl-4″-(carboxymethoxy)-2,3″-diisobutyl-1,1′4″1″-terphenyl-4-yl)propanoic acid]
binding affinity for Bcl-xL (in words) (Bcl-xL): less binding affinity

CC(C)Cc1cc(-c2ccc(-c3ccc(CCC(=O)O)cc3CC(C)C)cc2Cc2cccc3ccccc23)ccc1OCC(=O)O [m, 3-(4-(Carboxymethoxy)-3,2″-diisobutyl-2′-naphthalen-1-ylmethyl-[1,1′:4′,1″]-terphenyl-4″-yl)propionic acid]
Kd (Bcl-xL; related to known affinity of 16-mer Bak/Bcl-xL complex, read-out: KD-value, binding to Bcl-xL): 114 nM

CC(C)Cc1cc(CCC(=O)O)ccc1-c1ccc(-c2ccc(OCC(=O)O)c(Cc3cccc4ccccc34)c2CC(C)C)cc1 [n, 3-(4-(Carboxymethoxy)-2,2″-diisobutyl-3-naphthalen-1-ylmethyl-[1,1′:4′,1″]-terphenyl-4″-yl)propionic acid]
binding affinity for Bcl-xL (in words) (Bcl-xL): significant loss in binding affinity

Bis methyl 3-(1,1′:4′,1″-terphenyl-4,4″-yl)propanoic acid
effect on CD spectrum of gp41 core model (helicity of the hexameric bundle) [4]: little effect on the protein CD spectrum even at high concentrations
